The values below are quoted from earlier work in patent publication US8008299B2, “Urotensin II receptor antagonists” (Janssen Pharmaceutica, N.V., priority 2007, dated 2011).

The target of series [1] is T1, rat GPR14 (U-II receptor) (Rattus norvegicus, UniProt P49684).
T1 construct: expressed in transfected cells
T1 sequence (P49684 1-386): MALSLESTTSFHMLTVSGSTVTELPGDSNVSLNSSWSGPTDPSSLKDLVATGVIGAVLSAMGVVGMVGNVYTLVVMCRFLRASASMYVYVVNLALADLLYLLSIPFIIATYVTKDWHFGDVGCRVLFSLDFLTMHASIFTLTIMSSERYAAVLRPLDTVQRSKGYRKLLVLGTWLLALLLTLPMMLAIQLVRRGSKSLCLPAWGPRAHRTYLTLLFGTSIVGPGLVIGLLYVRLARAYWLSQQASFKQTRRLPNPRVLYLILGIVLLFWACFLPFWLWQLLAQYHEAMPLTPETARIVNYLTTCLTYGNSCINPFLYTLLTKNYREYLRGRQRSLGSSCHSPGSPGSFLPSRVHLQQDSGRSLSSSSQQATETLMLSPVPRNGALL
Conditions: agonist activity of the cyclic peptide used as agonist; read-out: FLIPR EC50; cited from earlier work.

In a further series the target is T2, rU-II (Rattus norvegicus, UniProt P49684).
T2 sequence (P49684 1-386): T1 sequence (P49684 1-386)
Conditions: cited from earlier work.

In the case of (Ac)-CFWK(2-NaI)C—NH2, the EC50 (commonly the concentration at which the effect is half-maximal) in series [1] is 0.54 ± 0.2 nM. At rU-II, the Ki – broadly, the dissociation constant of the complex between target and ligand, obtained from inhibition or displacement – is 0.12 ± 0.05 nM.
